Tests used:
[1] = cited from earlier work
[2] = Solubilization of itraconazole in aqueous acetic acid solutions, visually monitored for dissolution (Example 1); type: physicochemical; settings: 100 mg itraconazole
Method: Acetic acid solutions were prepared in water to 10%, 20%, 50% and 75% concentrations (expressed as volume glacial acetic acid/total volume of solution ×100). 100 mg itraconazole solute were then mixed independently with 1 ml of each solution and visually monitored for dissolution. If necessary, additional 1 ml aliquots of each acetic acid solution were added until the itraconazole solute was dissolved.

Solubility ([2]; 10% acetic acid v:v, 1 ml solvent, cold): Ins.
Solubility ([2]; 10% acetic acid v:v, 1 ml solvent, hot): Ins.
Solubility ([2]; 10% acetic acid v:v, 2 ml solvent, cold): Ins.
Solubility ([2]; 10% acetic acid v:v, 2 ml solvent, hot): Ins.
Solubility ([2]; 10% acetic acid v:v, 3 ml solvent, cold): Ins.
Solubility ([2]; 10% acetic acid v:v, 3 ml solvent, hot): Ins.
Solubility ([2]; 10% acetic acid v:v, 4 ml solvent, hot): Ins.
Solubility ([2]; 20% acetic acid v:v, 1 ml solvent, cold): Ins.
Solubility ([2]; 20% acetic acid v:v, 1 ml solvent, hot): Ins.
Solubility ([2]; 20% acetic acid v:v, 2 ml solvent, cold): Ins.
Solubility ([2]; 20% acetic acid v:v, 2 ml solvent, hot): Ins.
Solubility ([2]; 20% acetic acid v:v, 3 ml solvent, cold): Ins.
Solubility ([2]; 20% acetic acid v:v, 3 ml solvent, hot): Part
Solubility ([2]; 50% acetic acid v:v, 1 ml solvent, cold): Ins.
Solubility ([2]; 50% acetic acid v:v, 1 ml solvent, hot): Ins.
Solubility ([2]; 50% acetic acid v:v, 2 ml solvent, cold): Ins.
Solubility ([2]; 50% acetic acid v:v, 2 ml solvent, hot): Sol.
Solubility ([2]; 50% acetic acid v:v, 3 ml solvent, cold): Ins.
Solubility ([2]; 75% acetic acid v:v, 1 ml solvent, cold): Sol.
SMILES: CCC(C)n1ncn(-c2ccc(N3CCN(c4ccc(OCC5COC(Cn6cncn6)(c6ccc(Cl)cc6Cl)O5)cc4)CC3)cc2)c1=O (racemic) [itraconazole]
solubility in water [1]: less than 0.00001 g/ml

— patent US6461545B1, “Method of solubilizing and encapsulating itraconazole” (Emisphere Technologies, Inc., priority 1995, dated 2002)
